This is an account of results in PMC12163657 (ACS Omega, 2025).

Series [1] is described as follows: Mouse hepatocyte stability. In kind it is in vitro ADME. Conditions: hepatocytes.
Series [2] in a line: Plasma protein binding, rapid equilibrium dialysis, mouse plasma. In kind it is in vitro ADME. Particulars: undiluted plasma. A general note: Equilibrium dialysis compares concentrations on both sides of a semipermeable membrane.
The nature of series [3]: Plasma protein binding, rapid equilibrium dialysis, dog plasma. In kind it is in vitro ADME.
The nature of series [4]: Plasma protein binding, rapid equilibrium dialysis, cyno plasma. The class given is in vitro ADME, cynomolgus monkey.
The target in another series is T1, ESR1 Asp538Gly (Homo sapiens, UniProt P03372, D538G).
T1 sequence (P03372 1-595 D538G): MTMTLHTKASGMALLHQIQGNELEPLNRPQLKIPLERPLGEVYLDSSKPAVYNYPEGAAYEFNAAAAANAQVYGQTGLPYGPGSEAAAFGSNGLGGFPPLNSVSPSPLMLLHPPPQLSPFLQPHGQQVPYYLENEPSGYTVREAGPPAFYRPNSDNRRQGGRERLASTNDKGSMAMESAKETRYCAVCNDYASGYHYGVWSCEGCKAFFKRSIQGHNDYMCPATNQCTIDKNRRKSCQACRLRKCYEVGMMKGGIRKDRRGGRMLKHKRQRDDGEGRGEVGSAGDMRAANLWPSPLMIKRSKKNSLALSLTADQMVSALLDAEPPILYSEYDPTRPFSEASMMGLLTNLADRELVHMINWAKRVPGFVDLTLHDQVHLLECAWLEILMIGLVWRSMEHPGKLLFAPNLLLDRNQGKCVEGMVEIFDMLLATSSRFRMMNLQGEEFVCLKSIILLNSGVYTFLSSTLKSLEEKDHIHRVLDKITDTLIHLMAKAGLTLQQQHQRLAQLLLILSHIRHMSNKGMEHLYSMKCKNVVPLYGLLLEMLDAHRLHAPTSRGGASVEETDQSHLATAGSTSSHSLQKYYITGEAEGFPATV
Put plainly: AP. In kind it is cell-based.

Another series has as its target T2, ESR1 Tyr537Ser (Homo sapiens, UniProt P03372, Y537S).
T2 sequence (P03372 1-595 Y537S): T1 sequence (P03372 1-595 D538G) with Y537S, G538D
Put plainly: AP. In kind it is cell-based.

The next series deals with T3, BCRP (Homo sapiens, UniProt Q9UNQ0).
T3 sequence (Q9UNQ0 1-655): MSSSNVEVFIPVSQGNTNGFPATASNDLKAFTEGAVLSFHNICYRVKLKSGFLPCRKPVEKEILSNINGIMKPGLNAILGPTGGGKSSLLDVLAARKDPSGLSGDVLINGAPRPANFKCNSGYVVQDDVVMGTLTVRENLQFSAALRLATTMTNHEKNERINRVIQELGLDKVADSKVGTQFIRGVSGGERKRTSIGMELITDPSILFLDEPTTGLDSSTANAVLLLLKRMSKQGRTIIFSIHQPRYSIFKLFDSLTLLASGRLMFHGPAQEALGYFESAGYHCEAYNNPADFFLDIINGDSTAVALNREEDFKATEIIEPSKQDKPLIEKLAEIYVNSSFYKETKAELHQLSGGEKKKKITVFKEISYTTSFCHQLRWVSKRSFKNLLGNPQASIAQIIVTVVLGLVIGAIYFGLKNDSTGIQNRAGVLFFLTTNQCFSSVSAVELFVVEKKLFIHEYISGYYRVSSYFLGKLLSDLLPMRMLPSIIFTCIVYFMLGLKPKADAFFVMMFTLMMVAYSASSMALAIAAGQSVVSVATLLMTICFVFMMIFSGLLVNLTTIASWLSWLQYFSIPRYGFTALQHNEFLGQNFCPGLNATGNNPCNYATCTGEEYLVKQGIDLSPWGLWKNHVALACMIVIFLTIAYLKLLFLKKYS
Nature of the series: BCRP inhibition, membrane vesicles. The class given is in vitro ADME.

Series [5] can be described thus: Single-dose pharmacokinetics, dog. In kind it is in vivo. Particulars: Beagle, serum, 10 mg/kg.

Substitutions are numbered along the chain they refer to.

The term half-life denotes the time in which the quantity being followed falls by half. Low readings indicate rapid decline, high ones slow decline. In general, hepatocyte CLint refers to a measure of how fast metabolising enzymes remove a compound, apart from limits set by blood flow. In general, fraction unbound refers to the share of the substance not bound to proteins or other matrix. As a reminder, the IC50 is the concentration needed to halve the response being measured. Read a high IC50 as a need for much substance. In general, AUC refers to concentration integrated over time. Low readings indicate less exposure, high ones more exposure. In general, Cmax refers to the maximum level reached in the sampled fluid or tissue. One may read the Vd as a proportionality between amount in the body and measured concentration, not a real space. The clearance is a measure of how efficiently the substance is removed, as volume per time. Read a high clearance as efficient removal. In general, Tmax refers to the time from dosing to the highest level. The bioavailability is the share of a dose that reaches the circulation, judged against a reference dose that is usually intravenous. In series [1], `CCCN1CC(Oc2ccc([C@@H]3c4[nH]c5ccccc5c4C[C@@H](C)N3CC(C)(C)F)cc2)C1` [compound 21, (1R,3R)-2-(2-Fluoro-2-methylpropyl)-3-methyl-1-(4-((1-propylazetidin-3-yl)oxy)phenyl)-2,3,4,9-tetrahydro-1H-pyrido[3,4-b]indole] displayed a half-life greater than 6 h and an intrinsic clearance (hepatocyte CLint) of less than 3.9 µL/min/1e6 cells. In series [2], this molecule registered an unbound share (fraction unbound) at 4 h, 1 µM of 0.0006. Besides, in series [3], the “Plasma free drug percentage” value is given as 0.04%. Also, the “Plasma free drug percentage” value in series [4] came out at 0.13%. On ESR1 Asp538Gly, this molecule had an IC50 of 31.6 nM. The molecule further gave an IC50 against ESR1 Tyr537Ser of 50.1 nM. Also, the half-maximal inhibitory concentration (IC50) at BCRP is greater than 5000 nM. Also, in series [5] (iv), the exposure (AUC) came out at 41300 ng·h/mL, the maximum concentration (Cmax) was determined as 4060 ng/mL, the distribution volume (Vd) stood at 16 L/kg and the clearance is 3.33 mL/min/kg. In series [5] (iv), the half-life was 63 h. In series [5] (po), the AUC was found to be 33700 ng·h/mL, the maximum concentration (Cmax) is 1760 ng/mL, the Tmax amounted to 1.5 h and the bioavailability was found to be 89%. The molecule also gave a half-life in series [5] (po) of 106 h.
